In brackets after ≈: the same amount, converted by molar mass.
Experiments:
MRSA USA300 [1] = assay: microbe, parasite or virus in culture
Method: MRSA USA300 bacteria from −80 °C freezer stock were cultured on an LB agar plate overnight. One bacteria colony was added to a 6 mL fresh MHB with constant shaking at 200 rpm at 37 °C. The bacteria were transferred daily by inoculating 10 μL of stationary-phase culture into […] of MHB in a 1 mL cap-clipped Eppendorf tube. Then, 20 μL of bacteria aliquot was added to […] of MHB broth, with or without [R4W4], at a final concentration of the MIC overnight in an […] at 37 °C for five transfers. […] […] Experiments were performed in triplicates. Every time we increased the concentration of [R4W4], a sample of the induction generation was inoculated into 20% (vol/vol) glycerol and stored at −70 °C. The final MIC values of [R4W4], vancomycin, and levofloxacin were determined by modified microbroth dilution assay.

MRSA USA300 [2] = assay: microbe, parasite or virus in culture; settings: MRSA USA300, overnight 37 °C, duplicate
Method: The interaction of [R4W4], melittin, and vancomycin with LTA in the presence of MRSA was determined using a microbroth dilution assay. Two-fold serial dilution was used to achieve a 100 μL final concentration of the antibacterial agents in a 96 microplate well. A 360 μL S. aureus LTA (Sigma Aldrich stock 5 mg/mL) was added to 17.64 mL MHB containing MRSA (5 x 10^5 CFU/mL) to achieve the final concentration of S. aureus LTA 100 μg/mL. Then, 100 μL aliquots of MHB (MRSA (5 × 10^5 CFU/mL) and 100 μg/mL S. aureus LTA) were added to the 96 microtiter wells containing the antibacterial agents. The microplate was incubated overnight at 37 °C to obtain the MICs. Controls were bacteria grown in the presence of LTA alone and in MHB alone.

MRSA USA300 [3] = assay: Checkered board synergy assay with gentamicin; type: cell-based, Staphylococcus aureus
Method: (§1) An amount of 100 µL of [R4W4] peptide test solution at a final concentration of 512 µg/mL was added to each well A-G column 1 in plate A using a multi-channel pipette. A 50 µL MH Broth was added to micro-plate well A-G columns 2–9. Using a multi-channel pipette, a two-fold serial dilution was performed by removing 50 µL solution from column 1 and was added to column 2 with thorough mixing. The micro-pipette was discarded after each transfer. The last portion after column 9 was discarded. In another microplate, 100 µL MHB was added to well B-G columns 1–11 using a multi-channel pipette. A 200 µL gentamicin test solution 512 µg/mL was added to row A, columns 1–11. A two-fold serial dilution was performed by removing 100 µL from rows A to B. The last portion was discarded. Using eight multi-channel pipettes, 50 µL of gentamicin test solution was transferred in the ordinate column A-G row 1 to the first microplate. The plate was incubated at 37 °C for 18–24 h. The fractional inhibitory concentration (FIC) of the antibacterial agents and the fractional inhibitory concentration index (FICI) of the two antibacterial agents were determined to evaluate the synergistic interaction. The FICI was interpreted as follows: FICI ≤ 0.5, synergy; 0.5 < FICI ≤ 1, partial synergy; 1 ≤ FICI < 4, additive effect or indifference; 4 ≤ FICI antagonism and calculated from the mean values from multiple experiments.

E. coli 25922 = assay: Checkered board synergy assay with gentamicin; type: cell-based, Escherichia coli
Method: as §1

With `C[C@H]1COc2c(N3CCN(C)CC3)c(F)cc3c(=O)c(C(=O)O)cn1c23` [levofloxacin, Levofloxacin] the “MIC against index isolate (no serial passage)” value (MRSA USA300 [1]; MRSA USA300 index strain, MIC in duplicate) was 1 µg/mL (≈ 2.77 µM), the “change in MIC after serial passage” value (MRSA USA300 [1]; MRSA USA300 passaged versus index strain) was 2 folds and the MIC (MRSA USA300 [1]; Staphylococcus aureus, MRSA|USA300, read-out: MIC against serial passaged [R4W4]-resistant isolate) was 2 µg/mL (≈ 5.53 µM).

`CC[C@H](C)[C@H](NC(=O)CN)C(=O)NCC(=O)N[C@@H](C)C(=O)N[C@H](C(=O)N[C@@H](CC(C)C)C(=O)N[C@@H](CCCCN)C(=O)N[C@H](C(=O)N[C@@H](CC(C)C)C(=O)N[C@H](C(=O)N[C@H](C(=O)NCC(=O)N[C@@H](CC(C)C)C(=O)N1CCC[C@H]1C(=O)N[C@@H](C)C(=O)N[C@@H](CC(C)C)C(=O)N[C@H](C(=O)N[C@@H](CO)C(=O)N[C@@H](Cc1c[nH]c2ccccc12)C(=O)N[C@H](C(=O)N[C@@H](CCCCN)C(=O)N[C@@H](CCCNC(=N)N)C(=O)N[C@@H](CCCCN)C(=O)N[C@@H](CCCNC(=N)N)C(=O)N[C@@H](CCC(N)=O)C(=O)N[C@@H](CCC(N)=O)C(N)=O)[C@@H](C)CC)[C@@H](C)CC)[C@@H](C)O)[C@@H](C)O)C(C)C)C(C)C` [melittin, reference compound] was tested, and the “MIC in the presence of LTA” value (MRSA USA300 [2]; 100 μg/mL S. aureus LTA in MHB) was 32 µg/mL and the “MIC in the absence of LTA” value (MRSA USA300 [2]; MHB) was 8 µg/mL.

With `CNC(C)C1CCC(N)C(OC2C(N)CC(N)C(OC3OCC(C)(O)C(NC)C3O)C2O)O1` (stereo not shown) [Gentamicin, gentamicin, reference compound] the “MIC(B+A) (gentamicin in combination with [R4W4])” value (MRSA USA300 [3]; MRSA USA300, checkered board) was 0.05 µg/mL, the “MICB (gentamicin alone)” value (MRSA USA300 [3]; MRSA USA300, checkered board) was 0.09 µg/mL and the FICB (MRSA USA300 [3]; MRSA USA300, fractional inhibitory concentration of gentamicin) was 0.56. The “reduction in MIC value in combination” value (MRSA USA300 [3]; MRSA, [R4W4] + gentamicin combination versus alone) was ~ 2 fold, the “MIC(B+A) (gentamicin in combination with [R4W4])” value (E. coli 25922; E. coli 25922, checkered board) was 0.19 µg/mL and the “MICB (gentamicin alone)” value (E. coli 25922; E. coli 25922, checkered board) was 0.75 µg/mL. For the same compound, the FICB (E. coli 25922; E. coli 25922, fractional inhibitory concentration of gentamicin) was 0.25 and the “reduction in MIC value in combination” value (E. coli 25922; E. coli, [R4W4] + gentamicin combination versus alone) was “approximately 4 fold”.
